Legend:
Assay type in all cases: cell-based
[1] = tested on: motoneurons derived from human iPS cells (409B2 cell lines); test: ER stress test on axon bundle (form and orientation of axon); details: culture fluid including 1.5 [mol] of thapsigargin for 5 hours, evaluated 6 days later, versus untreated
Excerpt: The first experiment was accomplished to confirm the effect of ER stress against motoneuron using thapsigargin. In the first experiment, motoneurons derived from human iPS cells (409B2 cell lines) were used. The cell body spheroids of the motoneurons were inoculated in the first chambers 12a and cultivated. The motoneurons and the cell body spheroids were gained in the same way as mentioned above and the cultivation was accomplished in the same way as mentioned above. After cultivation, one of the motoneurons with a well grown and extended axon bundle was treated with culture fluid including 1.5 [mol] of thapsigargin for 5 hours. Then, 6 days later, the form of the axon bundle was evaluated, as shown in FIG. 17(b), in comparison with another axon bundle of the motoneurons not treated with any thapsigargin, as shown in FIG. 17(a). It can be said that, when suffering stress, the orientation of the axon becomes low or the axon degenerates.

[2] = tested on: motoneurons derived from human iPS cells (409B2 cell lines); test: calcium imaging of motoneuron spheroid with axon bundle after KCl stimulation; details: 1 [mol] of KCl provided to the cell spheroid after fluorescent treatment
Excerpt: FIG. 13 is a set of photographs showing motoneurons used for calcium imaging. In FIG. 13, (a) is a photograph of a spheroid with a bundle of axons outside the cultivation plate before adding calcium, (b) is a photograph of a spheroid with a bundle of axons outside the cultivation plate after adding calcium. In the present experiment, motoneurons derived from human iPS cells (409B2 cell lines) were used. The cell spheroids of the motoneurons were inoculated in the first chambers 12a and cultivated. The motoneurons and the cell spheroids were gained in the same way as mentioned above and the cultivation was accomplished in the same way as mentioned above. After cultivation, one of the motoneurons with a well grown and extended bundle of axons was extracted or brought out from the module 11 of the cultivation plate 10. Then 1 [mol] of KCl was provided to the cell spheroid, so that fluorescence became intense, as shown in FIG. 13(b), as a result of electrophysiological activity induced by the stimulation of KCl.

[3] = tested on: motoneurons derived from human iPS cells (409B2 cell lines); test: oxidative stress test, Directionality (orientation of axon) after Tau 1 immunostaining; details: H2O2 3 hour treatment, PBS washing, culture medium with or without Edaravone; evaluated two days after treatment; highest = negative control
Procedure: Here, cell body spheroids were produced by inoculating motoneurons derived from human iPS cells (409B2 cell lines) in the nonadherent cultivation plate 10. Then, after 10 days of cultivation, the cell body spheroids were inoculated in the first chamber 12a of the module 11 of the cultivation plate 10. Then, after 30 days of cultivation, the treatments of the following (1)-(3) conditions were accomplished.
(1) control PBS (Phosphate Buffered Saline) washing>>>culture medium
(2) H2O2 3 hour treatment>>>PBS washing>>>culture medium
(3) H2O2 3 hour treatment>>>PBS washing>>>culture medium containing Edaravone
Two days after the treatment, evaluation was done after immunostaining by marker Tau 1. The evaluation item was Directionality, which was the orientation of axon. Specifically, the orientations of objects in FIG. 22 were measured In this case, 0 degree indicated the direction of fluid conduit (channel 13). Since the axons were bundled and extended in the same direction, their morphological changes in the channel 13 could be compared between in case of under oxidative stress, as shown in FIG. 22 (b), and in case of under oxidative stress accompanied by application of antioxidant (Edaravone), which was used as neurological disease drug, as shown in FIG. 22 (c). […]

Row | Structure (SMILES) | Directionality of the axon bundle in the direction of fluid conduit (0 degree), order among conditions [3] | also measured
1 | C/C=C(/C)C(=O)O[C@H]1C(C)=C2[C@H]([C@@H]1OC(=O)CCCCCCC)[C@@](C)(OC(C)=O)C[C@H](OC(=O)CCC)[C@@]1(O)[C@H]2OC(=O)[C@@]1(C)O [thapsigargin] | – | form of the axon bundle under ER stress [1]: became deformed
2 | [Cl-].[K+] [KCl] | – | electrophysiological activity (fluorescence) of motoneuron including cell spheroid and bundle of axons [2]: became electrophysiologically active
3 | CC1=NN(c2ccccc2)C(=O)C1 [Edaravone] | the second | –
4 | OO [H2O2] | the third | –
